According to ChEMBL document CHEMBL1201862, “PubChem BioAssay data set” (2004):
Active and inactive are the calls of the source.

Legend:
[1] = molecular target: T1, Coagulation factor XII (Homo sapiens, UniProt P00748); format: functional;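 further: activated factor XIIa alpha cleaving a fluorogenic AMC peptide substrate; inhibitor potency from loss of enzyme activity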
T1 sequence (P00748 whole entry): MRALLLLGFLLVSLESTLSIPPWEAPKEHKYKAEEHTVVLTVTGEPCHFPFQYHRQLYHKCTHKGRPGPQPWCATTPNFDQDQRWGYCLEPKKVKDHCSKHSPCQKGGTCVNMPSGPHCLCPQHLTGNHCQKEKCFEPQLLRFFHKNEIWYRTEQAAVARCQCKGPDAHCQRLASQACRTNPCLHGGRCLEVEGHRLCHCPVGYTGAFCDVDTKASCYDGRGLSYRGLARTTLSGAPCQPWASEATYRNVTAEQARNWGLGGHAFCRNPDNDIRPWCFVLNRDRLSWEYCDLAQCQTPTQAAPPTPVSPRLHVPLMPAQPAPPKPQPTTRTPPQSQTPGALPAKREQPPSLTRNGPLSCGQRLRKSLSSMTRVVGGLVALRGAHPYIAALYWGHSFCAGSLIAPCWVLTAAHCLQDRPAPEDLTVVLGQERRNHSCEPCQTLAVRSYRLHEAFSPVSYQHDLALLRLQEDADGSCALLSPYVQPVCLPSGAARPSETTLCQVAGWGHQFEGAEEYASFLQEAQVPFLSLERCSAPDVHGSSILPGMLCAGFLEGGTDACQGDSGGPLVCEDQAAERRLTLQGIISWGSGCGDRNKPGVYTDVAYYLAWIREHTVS

[2] = cells; format: functional, cell-based
[3] = cells; format: functional, cell-based; remark: listed apart in the source
[4] = molecular target: Cytochrome P450 2D6 (Homo sapiens, UniProt P10635);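 further: CYP2D6 member of a cytochrome P450 panel assay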
[5] = molecular target: T2, Cytochrome P450 3A4 (Homo sapiens, UniProt P08684);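 further: CYP3A4 tested as one member of a cytochrome P450 panel screen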
[6] = molecular target: T3, Cytochrome P450 1A2 (Homo sapiens, UniProt P05177);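 further: PubChem cytochrome P450 panel assay, CYP1A2 panel member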
T3 sequence (P05177 whole entry): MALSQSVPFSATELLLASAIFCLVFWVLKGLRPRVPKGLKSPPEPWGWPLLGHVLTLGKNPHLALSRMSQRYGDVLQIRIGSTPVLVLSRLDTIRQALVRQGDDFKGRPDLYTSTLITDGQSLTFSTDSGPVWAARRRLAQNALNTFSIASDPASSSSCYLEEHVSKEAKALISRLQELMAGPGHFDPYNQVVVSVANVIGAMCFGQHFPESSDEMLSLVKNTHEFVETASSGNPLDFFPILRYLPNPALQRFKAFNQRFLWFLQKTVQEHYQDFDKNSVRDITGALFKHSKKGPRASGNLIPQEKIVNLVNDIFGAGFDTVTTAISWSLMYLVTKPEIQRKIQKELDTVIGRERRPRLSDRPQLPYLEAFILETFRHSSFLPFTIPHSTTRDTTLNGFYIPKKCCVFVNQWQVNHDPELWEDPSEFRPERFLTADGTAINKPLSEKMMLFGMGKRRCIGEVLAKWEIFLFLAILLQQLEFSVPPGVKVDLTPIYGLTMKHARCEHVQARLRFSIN

[7] = molecular target: Cytochrome P450 2C9 (Homo sapiens, UniProt P11712)
[8] = molecular target: T4, CAAX prenyl protease 2 (Saccharomyces cerevisiae S288c, UniProt Q03530); format: biochemical
T4 sequence (Q03530 whole entry): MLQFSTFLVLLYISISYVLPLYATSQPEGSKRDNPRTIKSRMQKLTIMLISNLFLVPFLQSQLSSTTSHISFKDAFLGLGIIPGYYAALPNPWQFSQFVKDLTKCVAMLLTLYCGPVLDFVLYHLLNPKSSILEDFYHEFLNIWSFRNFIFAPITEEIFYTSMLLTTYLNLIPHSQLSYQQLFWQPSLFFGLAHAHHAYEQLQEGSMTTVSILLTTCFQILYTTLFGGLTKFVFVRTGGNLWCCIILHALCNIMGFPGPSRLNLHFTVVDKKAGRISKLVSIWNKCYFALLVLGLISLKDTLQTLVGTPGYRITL

[9] = molecular target: Cytochrome P450 2C19 (Homo sapiens, UniProt P33261); experiment: Cytochrome panel assay with activity outcomes. Panel member name: p450-cyp2c19 Compounds with AC50 equal or less than 10 uM are considered active; format: functional
[10] = molecular target: Peroxisome proliferator-activated receptor gamma/Nuclear receptor coactivator 2 (Homo sapiens, UniProt P37231); experiment: (§1) TR-FRET dose response biochemical High Throughput Screening assay for agonists of the steroid receptor coactivator 2 (SRC-2) recruitment by the peroxisome proliferator-activated receptor gamma (PPAR gamma): non-selective agonists. [Related pubchem assays: 1297, 1032 ]; format: functional
[11] = molecular target: Peroxisome proliferator-activated receptor gamma/Nuclear receptor coactivator 1 (Homo sapiens, UniProt P37231); experiment: as §1, with “1 (SRC-1)” for “2 (SRC-2)”, “assays (depositor defined):AID1300, AID1808, AID504735, AID631]” for “assays: 1297, 1032 ]”; format: protein assay
[12] = molecular target: Peroxisome proliferator-activated receptor gamma/Nuclear receptor coactivator 3 (Homo sapiens, UniProt P37231); experiment: as §1, with “3 (SRC-3)” for “2 (SRC-2)”, “1301 (Confirmation screen.), 1048 (Primary screen.)]” for “1297, 1032 ]”; format: functional
[13] = molecular target: T2, Cytochrome P450 3A4; remark: listed apart in the source
[14] = molecular target: T5, Heat shock factor protein 1 (Mus musculus, UniProt P38532); experiment: HSF1 potentiators in luciferase reporter cells, confirmation, cell-based, NIH3T3, luminescence, dose retest (AID 435004); format: functional;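 further: stress induced by proteasome inhibitor MG132 added 30 min after compound; luciferase reporter driven by HSF1 response element in NIH3T3 cells; actives raise luminescence as potentiators of the MG132 stress response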
T5 sequence (P38532 whole entry): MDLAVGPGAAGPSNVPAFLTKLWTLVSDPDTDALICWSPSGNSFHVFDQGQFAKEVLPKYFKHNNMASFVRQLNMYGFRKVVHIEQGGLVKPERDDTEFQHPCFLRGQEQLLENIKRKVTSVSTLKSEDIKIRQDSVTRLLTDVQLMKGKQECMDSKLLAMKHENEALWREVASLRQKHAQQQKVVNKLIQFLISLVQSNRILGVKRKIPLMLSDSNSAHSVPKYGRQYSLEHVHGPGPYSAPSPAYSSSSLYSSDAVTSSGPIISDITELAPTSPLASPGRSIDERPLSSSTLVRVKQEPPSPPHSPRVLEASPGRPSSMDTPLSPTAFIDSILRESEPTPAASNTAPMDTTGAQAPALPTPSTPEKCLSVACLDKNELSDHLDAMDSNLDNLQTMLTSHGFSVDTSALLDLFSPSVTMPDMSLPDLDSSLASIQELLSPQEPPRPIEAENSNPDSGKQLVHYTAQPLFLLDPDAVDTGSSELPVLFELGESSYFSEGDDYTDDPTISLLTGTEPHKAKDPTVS

[15] = test system: HEK293; experiment: NOD2 signaling inhibitors in MDP-stimulated cells, cell-based, uHTS, luminescence (AID 2001); format: functional; settings: Homo sapiens
[16] = test system: HEK293; experiment: cells; format: functional, cell-based; settings: Homo sapiens
[17] = test system: HEK293; experiment: cells; format: functional, cell-based; settings: Homo sapiens; remark: listed apart in the source
[18] = test system: HEK293; experiment: NOD1 signaling inhibitors, primary screen, cell-based, luminescence, uHTS (AID 1578); format: functional; settings: Homo sapiens
[19] = molecular target: Trypsin (Sus scrofa, UniProt P00761); experiment: porcine trypsin inhibitors, dose response, selectivity assay for Rce1 protease inhibitor project, biochemical, quenched peptide fluorescence, cherry-pick (AID 488789)
[20] = Luminescence Cell-Based Dose Retest to Confirm Inhibitors of Cancer Stem Cells. [Related pubchem assays (depositor defined):AID2717, AID2721]; format: functional; settings: Homo sapiens
[21] = cytotoxicity in HMLE control line with eGFP shRNA, dose response, counter-screen for HMLE_sh_ECad selective toxicity project, cell-based, HMLE_sh_eGFP, luminescence (AID 463074); format: functional, Homo sapiens;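 further: HMLE human mammary epithelial cells expressing control shRNA against eGFP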
[22] = molecular target: T6, Carboxy-terminal domain RNA polymerase II polypeptide A small phosphatase 1 (Homo sapiens, UniProt Q9GZU7); experiment: inhibitors of CTDSP1, concentration-response testing, biochemical assay, absorbance-based, actives from ultra-high-throughput screening (AID 540297); format: functional
T6 sequence (Q9GZU7 whole entry): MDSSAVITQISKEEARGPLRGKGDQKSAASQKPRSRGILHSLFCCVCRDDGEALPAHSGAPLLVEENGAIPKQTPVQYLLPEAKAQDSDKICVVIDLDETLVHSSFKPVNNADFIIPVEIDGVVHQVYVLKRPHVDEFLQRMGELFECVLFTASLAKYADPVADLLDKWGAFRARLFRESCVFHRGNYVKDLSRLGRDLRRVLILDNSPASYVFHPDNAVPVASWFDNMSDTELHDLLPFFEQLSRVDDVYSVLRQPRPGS

[23] = Luminescence Cell-Based Dose Confirmation HTS to Identify Activators of 5'UTR Stem-Loop Driven Alpha-Synuclein mRNA Translation in H4 Neuroglioblastoma Cells. [Related pubchem assays: 1829 (Project Summary), 1814 (Primary HTS)]; format: functional
[24] = Luminescence Cell-Based Dose Response HTS to Identify Activators of Luciferase Translation or Activity in H4 […] Cells. [Related pubchem assays: 1829 (Project Summary), 1814 (Primary HTS)]; format: functional
[25] = test system: H4; experiment: Luminescence Cell-Based Dose Response HTS to Identify Activators of 5'UTR Stem-Loop Driven Prion Protein mRNA Translation in H4 Neuroglioblastoma Cells. [Related pubchem assays: 1829 (Project Summary), 1814 (Primary HTS)]; format: functional; settings: Homo sapiens
[26] = molecular target: T7, High affinity choline transporter 1 (Homo sapiens, UniProt Q9GZV3); experiment: CHT inhibitors, dose response, cell-based, 5-point CRC, membrane potential dye (AID 504840); format: functional
T7 sequence (Q9GZV3 whole entry): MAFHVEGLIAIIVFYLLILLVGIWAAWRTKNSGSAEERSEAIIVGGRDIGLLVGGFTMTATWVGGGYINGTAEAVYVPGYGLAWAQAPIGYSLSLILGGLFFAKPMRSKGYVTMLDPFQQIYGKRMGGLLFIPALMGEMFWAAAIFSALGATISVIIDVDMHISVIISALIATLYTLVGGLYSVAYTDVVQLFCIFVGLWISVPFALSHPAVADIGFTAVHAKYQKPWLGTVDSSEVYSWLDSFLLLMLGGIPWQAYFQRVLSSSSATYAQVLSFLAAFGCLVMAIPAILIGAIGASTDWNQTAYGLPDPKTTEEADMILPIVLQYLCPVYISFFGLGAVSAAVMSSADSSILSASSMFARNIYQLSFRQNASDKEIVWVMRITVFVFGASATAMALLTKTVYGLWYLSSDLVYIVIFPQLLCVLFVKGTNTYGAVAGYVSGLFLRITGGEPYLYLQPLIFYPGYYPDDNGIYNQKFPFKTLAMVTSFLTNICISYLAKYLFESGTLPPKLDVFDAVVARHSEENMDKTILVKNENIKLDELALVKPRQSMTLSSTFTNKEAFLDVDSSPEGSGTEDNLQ

[27] = molecular target: DNA dC->dU-editing enzyme APOBEC-3G (Homo sapiens, UniProt Q9HC16); experiment: Dose Response confirmation of small molecule APOBEC3G DNA Deaminase Inhibitors via a fluorescence-based single-stranded DNA deaminase assay. [Related pubchem assays (depositor defined):AID493012, AID493028]; format: functional
DNA dC->dU-editing enzyme APOBEC-3G, sequence (Q9HC16 whole entry): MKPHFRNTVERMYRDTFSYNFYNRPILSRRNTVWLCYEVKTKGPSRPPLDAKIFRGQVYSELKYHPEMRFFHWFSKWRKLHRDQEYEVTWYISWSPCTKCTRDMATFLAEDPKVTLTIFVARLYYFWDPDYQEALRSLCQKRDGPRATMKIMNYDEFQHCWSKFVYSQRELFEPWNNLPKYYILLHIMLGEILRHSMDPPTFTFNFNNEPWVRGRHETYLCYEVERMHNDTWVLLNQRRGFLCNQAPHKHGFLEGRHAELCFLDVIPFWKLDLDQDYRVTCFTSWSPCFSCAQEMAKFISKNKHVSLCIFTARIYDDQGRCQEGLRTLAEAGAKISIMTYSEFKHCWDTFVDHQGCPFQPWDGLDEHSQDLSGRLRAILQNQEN

Cytochrome P450 2C9, sequence (P11712 whole entry): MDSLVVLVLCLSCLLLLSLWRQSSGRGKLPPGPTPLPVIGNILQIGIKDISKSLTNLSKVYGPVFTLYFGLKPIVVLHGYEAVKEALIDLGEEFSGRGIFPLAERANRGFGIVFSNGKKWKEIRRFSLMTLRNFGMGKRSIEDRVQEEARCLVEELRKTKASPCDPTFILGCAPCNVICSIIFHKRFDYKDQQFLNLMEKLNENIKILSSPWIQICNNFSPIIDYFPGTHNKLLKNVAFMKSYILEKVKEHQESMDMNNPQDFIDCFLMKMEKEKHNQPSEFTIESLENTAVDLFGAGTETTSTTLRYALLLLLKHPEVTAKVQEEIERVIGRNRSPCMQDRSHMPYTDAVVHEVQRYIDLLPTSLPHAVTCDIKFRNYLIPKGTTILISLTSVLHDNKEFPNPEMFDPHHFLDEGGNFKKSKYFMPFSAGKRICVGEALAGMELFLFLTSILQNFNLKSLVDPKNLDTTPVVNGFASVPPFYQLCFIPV
T2 sequence (P08684 whole entry): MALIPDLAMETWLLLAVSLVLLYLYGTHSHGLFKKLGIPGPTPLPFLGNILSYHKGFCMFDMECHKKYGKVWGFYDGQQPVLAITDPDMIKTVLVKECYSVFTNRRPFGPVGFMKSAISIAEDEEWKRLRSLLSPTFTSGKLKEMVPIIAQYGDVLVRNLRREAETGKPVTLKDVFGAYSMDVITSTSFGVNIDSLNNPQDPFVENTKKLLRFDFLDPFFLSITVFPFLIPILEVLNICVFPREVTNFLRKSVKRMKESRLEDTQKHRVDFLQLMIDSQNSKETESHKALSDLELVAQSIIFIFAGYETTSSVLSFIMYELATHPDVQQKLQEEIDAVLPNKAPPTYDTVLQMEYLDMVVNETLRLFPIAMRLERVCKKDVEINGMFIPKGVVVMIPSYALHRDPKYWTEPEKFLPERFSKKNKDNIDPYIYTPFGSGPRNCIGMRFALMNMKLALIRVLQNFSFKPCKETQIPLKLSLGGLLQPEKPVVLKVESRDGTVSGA
Cytochrome P450 2D6, sequence (P10635 whole entry): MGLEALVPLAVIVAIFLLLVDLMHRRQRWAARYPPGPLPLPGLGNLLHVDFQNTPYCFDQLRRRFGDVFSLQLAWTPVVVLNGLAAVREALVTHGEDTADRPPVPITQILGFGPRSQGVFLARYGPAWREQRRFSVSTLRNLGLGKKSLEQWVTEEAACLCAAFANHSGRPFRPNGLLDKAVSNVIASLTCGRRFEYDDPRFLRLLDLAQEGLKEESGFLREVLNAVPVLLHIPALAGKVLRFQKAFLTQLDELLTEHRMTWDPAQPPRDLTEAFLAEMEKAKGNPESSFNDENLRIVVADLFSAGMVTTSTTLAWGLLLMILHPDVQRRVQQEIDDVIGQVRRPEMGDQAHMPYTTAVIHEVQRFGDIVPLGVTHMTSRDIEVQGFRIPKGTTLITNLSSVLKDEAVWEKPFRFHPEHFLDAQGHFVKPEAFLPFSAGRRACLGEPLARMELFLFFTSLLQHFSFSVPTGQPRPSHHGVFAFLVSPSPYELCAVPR
Peroxisome proliferator-activated receptor gamma/Nuclear receptor coactivator 1, sequence (P37231 whole entry): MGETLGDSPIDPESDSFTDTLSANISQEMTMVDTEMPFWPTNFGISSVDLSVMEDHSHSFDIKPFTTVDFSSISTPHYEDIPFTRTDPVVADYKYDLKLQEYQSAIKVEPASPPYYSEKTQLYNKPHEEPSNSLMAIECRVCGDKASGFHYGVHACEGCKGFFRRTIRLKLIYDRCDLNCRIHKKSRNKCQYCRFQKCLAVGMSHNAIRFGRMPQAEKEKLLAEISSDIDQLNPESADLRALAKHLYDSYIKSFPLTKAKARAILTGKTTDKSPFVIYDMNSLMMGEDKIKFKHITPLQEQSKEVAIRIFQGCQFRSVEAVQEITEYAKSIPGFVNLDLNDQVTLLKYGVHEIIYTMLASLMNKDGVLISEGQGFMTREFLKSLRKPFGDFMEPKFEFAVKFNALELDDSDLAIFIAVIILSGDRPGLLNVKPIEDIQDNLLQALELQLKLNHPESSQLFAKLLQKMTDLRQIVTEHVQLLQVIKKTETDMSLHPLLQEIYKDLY
Peroxisome proliferator-activated receptor gamma/Nuclear receptor coactivator 1, sequence (Q15788 whole entry, further chain): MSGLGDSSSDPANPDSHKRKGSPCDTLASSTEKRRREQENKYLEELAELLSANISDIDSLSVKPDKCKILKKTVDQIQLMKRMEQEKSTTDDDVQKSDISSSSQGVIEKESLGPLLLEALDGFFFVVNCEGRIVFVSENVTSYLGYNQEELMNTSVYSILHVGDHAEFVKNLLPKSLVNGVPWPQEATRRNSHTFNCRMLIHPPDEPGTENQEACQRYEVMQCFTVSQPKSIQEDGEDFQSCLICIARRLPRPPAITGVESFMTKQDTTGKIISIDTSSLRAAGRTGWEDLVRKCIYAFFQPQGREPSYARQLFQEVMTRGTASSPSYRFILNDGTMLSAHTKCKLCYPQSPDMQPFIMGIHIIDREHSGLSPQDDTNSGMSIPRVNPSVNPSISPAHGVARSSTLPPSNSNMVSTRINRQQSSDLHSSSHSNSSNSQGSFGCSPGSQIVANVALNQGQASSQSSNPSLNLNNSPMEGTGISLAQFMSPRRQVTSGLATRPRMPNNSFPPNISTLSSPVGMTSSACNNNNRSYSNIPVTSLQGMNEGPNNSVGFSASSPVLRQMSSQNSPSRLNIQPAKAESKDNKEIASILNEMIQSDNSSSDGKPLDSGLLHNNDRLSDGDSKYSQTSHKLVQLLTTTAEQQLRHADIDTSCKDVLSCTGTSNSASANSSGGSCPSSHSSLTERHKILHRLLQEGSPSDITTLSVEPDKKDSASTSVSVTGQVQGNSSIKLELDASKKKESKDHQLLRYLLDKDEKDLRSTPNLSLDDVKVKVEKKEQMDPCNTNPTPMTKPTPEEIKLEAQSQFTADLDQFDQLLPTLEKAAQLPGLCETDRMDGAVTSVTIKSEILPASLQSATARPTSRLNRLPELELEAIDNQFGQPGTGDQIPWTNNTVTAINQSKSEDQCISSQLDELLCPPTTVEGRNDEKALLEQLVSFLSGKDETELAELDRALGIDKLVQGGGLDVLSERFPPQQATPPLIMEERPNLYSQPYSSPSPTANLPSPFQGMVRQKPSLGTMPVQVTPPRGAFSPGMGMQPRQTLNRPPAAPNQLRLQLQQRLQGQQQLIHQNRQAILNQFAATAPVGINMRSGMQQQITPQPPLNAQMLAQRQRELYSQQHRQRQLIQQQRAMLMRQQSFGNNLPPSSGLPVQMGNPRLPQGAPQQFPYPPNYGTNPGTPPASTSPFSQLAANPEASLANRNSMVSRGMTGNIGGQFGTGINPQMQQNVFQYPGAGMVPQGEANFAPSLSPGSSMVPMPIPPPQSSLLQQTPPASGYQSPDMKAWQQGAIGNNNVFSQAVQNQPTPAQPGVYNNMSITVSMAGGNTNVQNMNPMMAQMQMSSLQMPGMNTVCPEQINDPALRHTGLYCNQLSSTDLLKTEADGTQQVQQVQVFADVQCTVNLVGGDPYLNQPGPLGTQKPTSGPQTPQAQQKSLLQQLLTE
Cytochrome P450 2C19, sequence (P33261 whole entry): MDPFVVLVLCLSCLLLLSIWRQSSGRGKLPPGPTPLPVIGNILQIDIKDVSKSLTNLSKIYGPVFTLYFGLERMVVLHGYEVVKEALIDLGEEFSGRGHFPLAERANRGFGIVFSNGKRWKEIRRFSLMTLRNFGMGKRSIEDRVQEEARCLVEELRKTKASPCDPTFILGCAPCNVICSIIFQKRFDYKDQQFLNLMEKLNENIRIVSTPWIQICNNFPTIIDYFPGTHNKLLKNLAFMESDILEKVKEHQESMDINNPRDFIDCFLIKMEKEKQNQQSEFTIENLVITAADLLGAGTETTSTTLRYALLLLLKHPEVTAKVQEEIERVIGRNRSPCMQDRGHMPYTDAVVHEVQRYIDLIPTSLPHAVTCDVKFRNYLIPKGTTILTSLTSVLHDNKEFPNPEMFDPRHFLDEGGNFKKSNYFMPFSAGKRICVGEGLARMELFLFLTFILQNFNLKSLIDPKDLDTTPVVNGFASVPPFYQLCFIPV
Trypsin, sequence (P00761 whole entry): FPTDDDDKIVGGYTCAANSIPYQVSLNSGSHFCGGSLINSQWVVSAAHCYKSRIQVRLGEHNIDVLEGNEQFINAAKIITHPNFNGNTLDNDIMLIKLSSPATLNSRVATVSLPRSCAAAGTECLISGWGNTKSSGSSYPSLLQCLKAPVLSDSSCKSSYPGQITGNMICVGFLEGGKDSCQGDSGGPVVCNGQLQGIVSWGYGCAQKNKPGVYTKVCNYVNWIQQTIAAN

Cn1c(NCCc2ccccc2)cc(=O)n(C)c1=O
IC50 [1]: > 50 µM (inactive) | EC50 [2]: > 29.9 µM (inactive) | IC50 [3]: > 29.9 µM (inactive)

COc1ccc2c(=O)c(-c3ccccc3C)c(C)oc2c1
AC50 [4]: inconclusive | AC50 [5]: inconclusive | AC50 [6]: 31.6 µM (inconclusive)

COC(=O)c1[nH]c(C)c(C(=O)C2=C(O)C(=O)N(CCN(C)C)C2c2cccc(OC)c2OC)c1C (centres undefined)
IC50 [1]: > 50 µM (inactive)

CC(=O)NCCNc1nc(-c2ccccc2C)nc2ccccc12
AC50 [7]: inconclusive

Cc1ccc(/C=N/NC(=O)c2nnn(-c3nonc3N)c2C(C)C)o1
AC50 [8]: 2.96 µM (active)

Cc1noc(C)c1-c1cc(NC2CCNCC2)ncn1
AC50 [7]: inconclusive | AC50 [5]: inconclusive | AC50 [9]: inconclusive | AC50 [6]: 0.126 µM (inconclusive)

O=C(Nc1cccnc1)c1sc(Nc2ccccc2F)nc1-c1ccccc1
EC50 [10]: 6.83 µM (active) | EC50 [11]: 6.48 µM (active) | EC50 [12]: 28.3 µM (not active)

CCOC(=O)N1CCC(NS(=O)(=O)c2ccc3c(c2)C(C)(C)C(=O)N3C)CC1
AC50 [7]: inconclusive | AC50 [13]: 15.8 µM (inconclusive) | EC50 [14]: > 260 µM (inactive) | AC50 ([9]; read-out: AC50): 11.2 µM (inconclusive)

Cc1ccc(C)c(-n2nc3c4c(ccc3c2O)C(=O)c2ccccc2C4=O)c1
IC50 [15]: 18 µM (inactive) | IC50 [16]: > 20 µM (inactive) | IC50 [17]: > 20 µM (inactive) | EC50 [18]: 11.1 µM (active)

CCc1cc(=O)oc2c3c(cc(OCC(=O)NCCCC(=O)O)c12)OC(C)(C)CC3
AC50 [8]: 12.1 µM (active) | AC50 [19]: 7.16 µM (active)

COc1ccc(CCNc2cc(C)nc3c(-c4ccc(Cl)cc4)cnn23)cc1OC
AC50 [20]: 4.77 µM (active) | AC50 [21]: 24.1 µM (active)

O=C(NNC(=O)c1cc2cc3ccccc3nc2s1)c1cccc(C(F)(F)F)c1
IC50 [22]: 5.86 µM (active) | AC50 [7]: inconclusive | AC50 [13]: 1.26 µM (inconclusive)

Cc1ccc(C(=O)c2cnc3cc4c(cc3c2S(=O)(=O)c2ccccc2)OCCO4)cc1
EC50 [23]: 6.76 µM (active) | IC50 [15]: 12.9 µM (inactive) | EC50 [24]: 9.9 µM (active) | IC50 [16]: 14.7 µM (active) | IC50 [17]: > 20 µM (inactive) | EC50 [25]: 7.93 µM (active) | EC50 [18]: > 20 µM (inactive)

COc1ccc(-c2nc(-c3cccs3)c(-c3cccs3)[nH]2)cc1O
EC50 [10]: 4.79 µM (active) | EC50 [11]: 4.8 µM (active) | IC50 [26]: 20 µM (active) | EC50 [12]: 79.6 µM (not active)

CN(C)Cc1c[nH]c2ncnc(O)c12
AC50 [4]: inconclusive

COc1ccccc1NS(=O)(=O)c1cc(N)ccc1N1CCCCC1
IC50 [27]: 72.5 µM (active)

O=[As](O)(O)c1ccc(NCc2ccccc2)cc1
AC50 [4]: inconclusive

NC(=O)CSc1oc(-c2cccs2)nc1S(=O)(=O)c1ccccc1
EC50 [10]: 10.8 µM (not active) | EC50 [11]: 10.9 µM (inactive) | EC50 [12]: > 79.4 µM (not active)

COc1ccc(-c2c(-c3ccsc3)oc3ccc(N4CCOCC4)cc23)cn1
AC50 [19]: 9.22 µM (active)
